Source: the NIST ThermoML archive (doi:10.1016/j.tca.2013.03.031)
Numbers after ± are expanded uncertainties.

Conditions: 101.33 kPa, Liquid, Vibrating tube method

| mass density (288.15 K) [kg/m3] | mass density (293.15 K) [kg/m3] | mass density (298.15 K) [kg/m3] | mass density (303.15 K) [kg/m3] | mass density (308.15 K) [kg/m3] | mass density (313.15 K) [kg/m3] | Structure (SMILES) |
| --- | --- | --- | --- | --- | --- | --- |
| 1259.99 ± 0.45 | 1252.77 ± 0.44 | 1245.49 ± 0.44 | 1238.18 ± 0.43 | 1230.84 ± 0.42 | 1223.46 ± 0.42 | ClCCCl [1,2-dichloroethane] |
| 819.786 ± 0.65 | 815.497 ± 0.64 | 811.198 ± 0.64 | 806.887 ± 0.63 | 802.562 ± 0.63 | 798.222 ± 0.63 | CCCCCC(C)=O [2-heptanone] |
| 951.178 ± 0.23 | 946.713 ± 0.23 | 942.243 ± 0.23 | 937.767 ± 0.23 | 933.285 ± 0.23 | 928.795 ± 0.23 | O=C1CCCCC1 [cyclohexanone] |

| Structure (SMILES) | mass density (288.15 K) [kg/m3] | mass density (293.15 K) [kg/m3] | mass density (298.15 K) [kg/m3] | mass density (303.15 K) [kg/m3] | mass density (308.15 K) [kg/m3] | mass density (313.15 K) [kg/m3] |
| --- | --- | --- | --- | --- | --- | --- |
| ClC(Cl)C(Cl)Cl [1,1,2,2-tetrachloroethane] | 1601.45 ± 2.3 | 1593.65 ± 2.3 | 1585.87 ± 2.3 | 1578.07 ± 2.3 | 1570.27 ± 2.2 | 1562.45 ± 2.2 |
| CCC(C)=O [butanone] | 810.262 ± 0.24 | 805.058 ± 0.24 | 799.828 ± 0.24 | 794.565 ± 0.24 | 789.273 ± 0.24 | 783.946 ± 0.24 |
